Earlier results as cited in patent publication US20260232577A1, “A MACROLIDE FOR USE IN A METHOD OF PREVENTING OR TREATING AN IMMUNOLOGICAL DISEASE OR DISORDER” (Nucleus Medical GmbH, priority 2023, published 2026).

C=CC[C@@H]1/C=C(\C)C[C@H](C)C[C@H](OC)[C@H]2O[C@@](O)(C(=O)C(=O)N3CCCC[C@H]3C(=O)O[C@H](/C(C)=C/[C@@H]3CC[C@@H](O)[C@H](OC)C3)[C@H](C)[C@@H](O)CC1=O)[C@H](C)C[C@@H]2OC [tacrolimus]
bioavailability variability (after oral administration, international literature): 4-90% | blood level fluctuations, variation range (after oral application, internationally described): more than 80% | oral bioavailability on average (limited by presystemic metabolism in the GI tract): ~ 25%
